The test deals with T1, glucocorticoid receptor (Homo sapiens, UniProt P04150).
T1 construct: endogenous in cells
T1 sequence (P04150 1-777): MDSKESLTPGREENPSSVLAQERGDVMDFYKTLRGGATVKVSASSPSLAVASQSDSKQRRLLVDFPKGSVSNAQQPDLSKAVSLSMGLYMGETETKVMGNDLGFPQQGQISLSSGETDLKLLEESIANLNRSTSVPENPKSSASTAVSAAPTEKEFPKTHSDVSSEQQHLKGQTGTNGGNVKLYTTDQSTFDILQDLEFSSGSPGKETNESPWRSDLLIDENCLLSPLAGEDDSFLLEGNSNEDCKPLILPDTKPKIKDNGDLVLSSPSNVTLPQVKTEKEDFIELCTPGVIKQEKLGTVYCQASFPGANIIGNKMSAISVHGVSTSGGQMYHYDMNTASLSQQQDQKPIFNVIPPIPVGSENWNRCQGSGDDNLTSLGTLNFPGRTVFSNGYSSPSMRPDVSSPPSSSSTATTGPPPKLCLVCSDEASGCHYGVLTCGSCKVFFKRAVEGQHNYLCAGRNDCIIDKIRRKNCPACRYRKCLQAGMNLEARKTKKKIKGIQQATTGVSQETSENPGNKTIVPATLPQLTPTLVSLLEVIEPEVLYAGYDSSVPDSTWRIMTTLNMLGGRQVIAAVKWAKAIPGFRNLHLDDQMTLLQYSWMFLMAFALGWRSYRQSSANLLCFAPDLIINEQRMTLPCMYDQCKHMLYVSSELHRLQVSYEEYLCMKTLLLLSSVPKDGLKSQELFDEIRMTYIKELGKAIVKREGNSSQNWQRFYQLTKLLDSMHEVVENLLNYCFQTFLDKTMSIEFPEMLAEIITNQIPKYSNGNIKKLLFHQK
Description: Ligand binding assay (GR BIND). On the procedure:
• Materials: • Binding Buffer: TEGM (10 mM Tris-HCl, 1 mM EDTA, 10% glycerol, 1 mM beta-mecaptoethanol, 10 mM Sodium Molybdate, pH 7.2) • 50% HAP Slurry: Calbiochem Hydroxylapatite, Fast Flow, in 10 mM Tris, pH 8.0 and 1 mM EDTA. • Wash Buffer: 40 mM Tris, pH7.5, 100 mM KCl, 1 mM EDTA and 1 mM EGTA.
Phenol red-free Trypsin-EDTA is diluted in the same PBS1:10. The cell layers are rinsed with 1× Trypsin, extra Trypsin is poured out, and the cell layers are incubated at 37° C. for ˜2 min. The flask is tapped and checked for signs of cell detachment. Once the cells begin to slide off the flask, the complete media is added. The cells are counted at this point, then diluted to the appropriate concentration and split into flasks or dishes for further culturing (Usually 1:3 to 1:6 dilution).
When the cells are 70 to 85% confluent, they are detached as described above, and collected by centrifuging at 1000 g for 10 minutes at 4° C. The cell pellet is washed twice with TEGM (10 mM Tris-HCl, 1 mM EDTA, 10% glycerol, 1 mM beta-mercaptoethanol, 10 mM Sodium Molybdate, pH 7.2). After the final wash, the cells are resuspended in TEGM at a concentration of 10^7 cells/mL. The cell suspension is snap frozen in liquid nitrogen or ethanol/dry ice bath and transferred to −80° C. freezer on dry ice. Before setting up the binding assay, the frozen samples are left on ice-water to just thaw (˜1 hr). Then the samples are centrifuged at 12,500 g to 20,000 g for 30 min at 4° C. The supernatant is used to set-up assay right away. If using 50 μL of supernatant, the test compound can be prepared in 50 μL of the TEGM buffer.
1×TEGM buffer is prepared, and the isotope-containing assay mixture is prepared in the following order: EtOH (2% final concentration in reaction), 3H-DEX (Amersham Biosciences) and 1×TEGM. [e.g. For 100 samples, 200 μL (100×2) of EtOH+4.25 μL of 1:10 ^3H—Dex stock+2300 μL (100×23) 1×TEGM]. The compound is serially diluted, e.g., if starting final conc. is 1 μM, and the compound is in 25 μL of solution, for duplicate samples, 75 μL of 4×1 μM solution is made and 3 μL of 100 μM is added to 72 μL of buffer, and 1:5 serial dilution.
25 μL of ^3H-DEX (6 nM) trace and 25 μL compound solution are first mixed together, followed by addition of 50 μL receptor solution. The reaction is gently mixed, spun briefly at about 200 rpm and incubated at 4° C. overnight. 100 μL of 50% HAP slurry is prepared and added to the incubated reaction which is then vortexed and incubated on ice for 5 to 10 minutes. The reaction mixture is vortexed twice more to resuspend HAP while incubating reaction. The samples in 96-well format are then washed in wash buffer using The FilterMate™ Universal Harvester plate washer (Packard). The washing process transfers HAP pellet containing ligand-bound expressed receptor to Unifilter-96 GF/B filter plate (Packard). The HAP pellet on the filter plate is incubated with 50 μL of MICROSCINT (Packard) scintillint for 30 minutes before being counted on the TopCount microscintillation counter (Packard). […] are calculated using DEX as a reference.
Usually Ki stands for a measure of affinity in units of concentration, obtained from inhibition or displacement. For `C[C@]12Cc3cnn(-c4ccc(F)cc4)c3C=C1CC[C@@H]2CN(CCc1ccccc1F)S(=O)(=O)Cc1cccc(Cl)c1` [Example 106, 1-(3-chlorophenyl)-N-[2-(2-fluorophenyl)ethyl]-N-{[(4αR,5S)-1-(4-fluorophenyl)-4α-methyl-1,4,4α,5,6,7-hexahydrocyclopenta[f]indazol-5-yl]methyl}methanesulfonamide], the Ki was determined as 1.7 nM. With `C[C@]12Cc3cnn(-c4ccc(F)cc4)c3C=C1CC[C@@H]2CN(CCc1ccccc1F)S(=O)(=O)Cc1ccccc1Cl` [Example 107, 1-(2-chlorophenyl)-N-[2-(2-fluorophenyl)ethyl]-N-{[(4αR,5S)-1-(4-fluorophenyl)-4α-methyl-1,4,4α,5,6,7-hexahydrocyclopenta[f]indazol-5-yl]methyl}methanesulfonamide] the figure was 1.8 nM; with `C[C@]12Cc3cnn(-c4ccc(F)cc4)c3C=C1CC[C@@H]2CN(CCc1ccccc1F)S(=O)(=O)Cc1ccccc1C(F)(F)F` [Example 108, N-[2-(2-fluorophenyl)ethyl]-N-{[(4αR,5S)-1-(4-fluorophenyl)-4α-methyl-1,4,4α,5,6,7-hexahydrocyclopenta[f]indazol-5-yl]methyl}-1-[2-(trifluoromethyl)phenyl]methanesulfonamide], 2.3 nM. The same measure for `CC(C1CCC2=Cc3c(cnn3-c3ccc(F)cc3)C[C@@]21C)N(CC1CC1)S(=O)(=O)CC(F)(F)F` (stereo partly drawn) [Example 109, N-(cyclopropylmethyl)-2,2,2-trifluoro-N-{1-[(4αR)-1-(4-fluorophenyl)-4α-methyl-1,4,4α,5,6,7-hexahydrocyclopenta[f]indazol-5-yl]ethyl}ethanesulfonamide]: 2.1 nM; for `C[C@]12Cc3cnn(-c4ccc(F)cc4)c3C=C1CC[C@@H]2CN(CC1CCCO1)S(=O)(=O)Cc1cccc(C(F)(F)F)c1` (stereo partly drawn) [Example 110, N-{[(4αR,5S)-1-(4-fluorophenyl)-4α-methyl-1,4,4α,5,6,7-hexahydrocyclopenta[f]indazol-5-yl]methyl}-N-(tetrahydrofuran-2-ylmethyl)-1-[3-(trifluoromethyl)phenyl]methanesulfonamide]: 1.4 nM. With `C[C@]12Cc3cnn(-c4ccc(F)cc4)c3C=C1CC[C@@H]2CN(CCc1ccccc1F)S(=O)(=O)Cc1ccc(Cl)c(Cl)c1` [Example 111, 1-(3,4-dichlorophenyl)-N-[2-(2-fluorophenyl)ethyl]-N-{[(4αR,5S)-1-(4-fluorophenyl)-4α-methyl-1,4,4α,5,6,7-hexahydrocyclopenta[f]indazol-5-yl]methyl}methanesulfonamide] the figure was 1.8 nM; with `C[C@H](O)CN(C[C@H]1CCC2=Cc3c(cnn3-c3ccc(F)cc3)C[C@@]21C)S(=O)(=O)c1ccc(F)c(Cl)c1` [Example 112, 3-chloro-4-fluoro-N-{[(4αR,5S)-1-(4-fluorophenyl)-4α-methyl-1,4,4α,5,6,7-hexahydrocyclopenta[f]indazol-5-yl]methyl}-N-[(2S)-2-hydroxypropyl]benzenesulfonamide], 1.7 nM; with `C[C@H](O)CN(C[C@H]1CCC2=Cc3c(cnn3-c3ccc(F)cc3)C[C@@]21C)S(=O)(=O)CC(F)(F)F` [Example 113], 2.2 nM. Molecule `C[C@@H](CN(C[C@H]1CCC2=Cc3c(cnn3-c3ccc(F)cc3)C[C@@]21C)S(=O)(=O)CC(F)(F)F)OS(=O)(=O)CC(F)(F)F` [Example 114, (1S)-2-{{[(4αR,5S)-1-(4-fluorophenyl)-4α-methyl-1,4,4α,5,6,7-hexahydrocyclopenta[f]indazol-5-yl]methyl}[(2,2,2-trifluoroethyl)sulfonyl]amino}-1-methylethyl 2,2,2-trifluoroethanesulfonate] had a Ki of 0.8 nM. With `C[C@@H](O)CN(C[C@H]1CCC2=Cc3c(cnn3-c3ccc(F)cc3)C[C@@]21C)S(=O)(=O)c1ccc(F)c(Cl)c1` [Example 115, 3-chloro-4-fluoro-N-{[(4αR,5S)-1-(4-fluorophenyl)-4α-methyl-1,4,4α,5,6,7-hexahydrocyclopenta[f]indazol-5-yl]methyl}-N-[(2R)-2-hydroxypropyl]benzenesulfonamide] the figure was 2.9 nM; with `C[C@]12Cc3cnn(-c4ccc(F)cc4)c3C=C1CC[C@@H]2CN(CCc1ccccc1O)S(=O)(=O)c1ccccc1F` [Example 116, 2-fluoro-N-{[(4αR,5S)-1-(4-fluorophenyl)-4α-methyl-1,4,4α,5,6,7-hexahydrocyclopenta[f]indazol-5-yl]methyl}-N-[2-(2-hydroxyphenyl)ethyl]benzenesulfonamide], 1.4 nM; with `C[C@]12Cc3cnn(-c4ccc(F)cc4)c3C=C1CC[C@@H]2CN(CCO)S(=O)(=O)c1ccccc1C(N)=O` [Example 117, 2-{[{[(4αR,5S)-1-(4-fluorophenyl)-4α-methyl-1,4,4α,5,6,7-hexahydrocyclopenta[f]indazol-5-yl]methyl}(2-hydroxyethyl)amino]sulfonyl}benzamide], 9.4 nM. The same measure for `COCCN(C[C@H]1CCC2=Cc3c(cnn3-c3ccc(F)cc3)C[C@@]21C)S(=O)(=O)CCN1C(=O)c2ccccc2C1=O` [Example 118, 2-(1,3-dioxo-1,3-dihydro-2H-isoindol-2-yl)-N-{[(4αR,5S)-1-(4-fluorophenyl)-4α-methyl-1,4,4α,5,6,7-hexahydrocyclopenta[f]indazol-5-yl]methyl}-N-(2-methoxyethyl)ethanesulfonamide]: 3.8 nM; for `COc1ccccc1CCN(C[C@H]1CCC2=Cc3c(cnn3-c3ccc(F)cc3)C[C@@]21C)S(=O)(=O)Cc1cccc(C(F)(F)F)c1` [Example 119, N-{[(4αR,5S)-1-(4-fluorophenyl)-4α-methyl-1,4,4α,5,6,7-hexahydrocyclopenta[f]indazol-5-yl]methyl}-N-[2-(2-methoxyphenyl)ethyl]-1-[3-(trifluoromethyl)phenyl]methanesulfonamide]: 2.3 nM.

Consider `COc1ccccc1CCN(C[C@H]1CCC2=Cc3c(cnn3-c3ccc(F)cc3)C[C@@]21C)S(=O)(=O)CC(F)(F)F` [Example 120, 2,2,2-trifluoro-N-{[(4αR,5S)-1-(4-fluorophenyl)-4α-methyl-1,4,4α,5,6,7-hexahydrocyclopenta[f]indazol-5-yl]methyl}-N-[2-(2-methoxyphenyl)ethyl]ethanesulfonamide], for which the Ki is 1.3 nM. With `C[C@]12Cc3cnn(-c4ccc(F)cc4)c3C=C1CC[C@@H]2CN(CCc1ccccc1F)S(=O)(=O)CCN1C(=O)c2ccccc2C1=O` [Example 121, 2-(1,3-dioxo-1,3-dihydro-2H-isoindol-2-yl)-N-[2-(2-fluorophenyl)ethyl]-N-{[(4αR,5S)-1-(4-fluorophenyl)-4α-methyl-1,4,4α,5,6,7-hexahydrocyclopenta[f]indazol-5-yl]methyl}ethanesulfonamide] the figure was 5.3 nM.
